Read-outs that look alike come from different tables or passages of the source.
Tests used:
[1] = Clinical safety study in healthy volunteers, single dose cohort 6; format: in vivo, human; conditions: cohort 6, 600 μg/kg single dose, still blinded
Procedure: (§1) An initial study was conducted to evaluate the safety and pharmacokinetics of
(§2) CMX001 in healthy volunteers. The study consisted of a single dose arm (SD) and a multiple dose arm (MD). In the single dose arm 7 cohorts of 6 subjects were treated (4 subjects received active drug and 2 placebo). Enrollment was staggered as 2 subjects (one active, one placebo) followed by 4 subjects (Groups A and B). The estimated single doses for the two highest doses treated for a […] subject were 40 mg (0.6 mg/kg cohort 6) and 70 mg (1 mg/kg cohort 7). In the multiple dose arm, cohort 6MD received 0.1 mg/kg on Day 0, 6 and 12; Cohort 7MD received 0.2 mg/kg on Day 0, 6 and 12. Levels of cidofovir, CMX001 and CMX064 (major metabolite) were measured in blood and urine of subjects during the course of the study. Gastrointestinal (GI) monitoring of the subjects included (a) monitoring for clinical signs of GI adverse events, (b) monitoring for clinical symptoms using a visual Analog Scale, (c) monitoring for appetite loss/anorexia, nausea, vomiting, diarrhea, constipation and intestinal gas/bloating, (d) laboratory tests for fecal occult blood; serum electrolytes, urine specific gravity, BUN/creatinine ratio; serum albumin, and lipids, and (e) diagnostic studies (the Wireless capsule endoscopy (PillCam®, Given Imaging)).
Plasma concentration curves of CMX001 following a single dose administration are shown in FIG. 1, and plasma concentration curves of cidofovir following a single dose of CMX001 are shown in FIG. 2.

[2] = system: lethal Orthopoxivirus infections; format: in vivo; conditions: mice and rabbits
[3] = Clinical pharmacokinetics in healthy volunteers, single dose of CMX001; format: in vivo; conditions: Human, analyte = label
Procedure: as §1, §2
Table 3 illustrates the PK comparison of CMX 001 with CMX 021 and CMX 064 for mouse, rabbit and human.

[4] = intravenous infusion, patients; cited from earlier work

## CCCCCCCCCCCCCCCCOCCCOP(=O)(O)CO[C@H](CO)Cn1ccc(N)nc1=O [CMX001]
[1]
  adverse events: No serious adverse events (SAEs), no significant adverse events (AEs) (i.e. ≧Grade 2), no AEs directly attributable to drug
  changes to clinical laboratory values: No drug associated clinically significant changes to clinical laboratory values, including those indicative of kidney dysfunction
  gastrointestinal capsule endoscopy findings: No post-dose clinically significant gastrointestinal capsule endoscopy findings attributable to drug
[2]; daily for 5 days, low titer inoculums
  effective dose: 1 to 2 mg/kg
[2]; late stage, single dose
  effective dose: 20 to 30 mg/kg
[2]
  protection against lethal Orthopoxivirus infections: essentially completely protective

## Nc1ccn(C[C@@H](CO)OCP(=O)(O)OCCCOCCCC(=O)O)c(=O)n1 [CMX064]
[3]; CMX001 dose 0.050 mg/kg
  AUCO→: 38.95 ng·h/mL
  Cmax: 4.63 ng/mL
[3]; CMX001 dose 0.100 mg/kg
  AUCO→: 34.02 ng·h/mL
  Cmax: 2.85 ng/mL
[3]; CMX001 dose 0.200 mg/kg
  AUCO→: 39.73 ng·h/mL
  Cmax: 4.55 ng/mL
[3]; CMX001 dose 0.400 mg/kg
  AUCO→: 202.99 ng·h/mL
  Cmax: 23.03 ng/mL
[3]; CMX001 dose 0.600 mg/kg
  AUCO→: 187.0 ng·h/mL
  Cmax: 24.86 ng/mL

## Nc1ccn(C[C@@H](CO)OCP(=O)(O)O)c(=O)n1 [Cidofovir]
[4]
  nephrotoxicity: dose-limited by its nephrotoxicity
